Patent US10981932B2, “Macrocyclic indole derivatives” (Bayer Aktiengesellschaft, priority 2016, dated 2021)
Structures can show the parent of a compound that is named as a salt. Where two headings read alike, the source gives them in different places.

How the values were obtained:
MCL-1 = MCL-1 (Homo sapiens, UniProt Q07820); assay: Protein-protein interaction assay MCL-1/Noxa BH3 peptide (MCL-1 assay), TR-FRET; format: binding; conditions: MBP-MCL-1 / Noxa BH3-derived peptide, median
In short: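 TR-FRET, 665/622 nm emission ratio (excitation 330–350 nm), measured MCL-1/Noxa complex formation. 1 nM MBP-MCL-1, 50 mM Tris/HCl pH 7, 0.1% BGG, 2 mM DTT. Incubation 1 h at 22 °C, then overnight at 4 °C. IC50 by 4-parameter regression, normalized to DMSO (0%) and no-MCL-1 (100%) controls.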

OPM2 = assay: Anti-proliferative effect (CellTiter-Glo, 72 h), OPM2; format: cell-based; conditions: OPM2 cells, median, read-out: IC50 antiproliferation assay OPM2 [M] (median)
In short: (§1)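 Cells were treated with compounds for 72 h at 37 °C in a humidified incubator, and viability was measured by CellTiter-Glo luminescence. A parallel day 0 plate, read the same way, gave the time zero baseline.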

MV-4-11 = assay: Anti-proliferative effect (CellTiter-Glo, 72 h), MV-4-11; format: cell-based; conditions: Homo sapiens, MV4-11, 72 h, MV-4-11 cells, median, read-out: IC50 antiproliferation assay MV-4-11 [M] (median)
In short: as §1

Sequence of MCL-1 (Q07820 whole entry): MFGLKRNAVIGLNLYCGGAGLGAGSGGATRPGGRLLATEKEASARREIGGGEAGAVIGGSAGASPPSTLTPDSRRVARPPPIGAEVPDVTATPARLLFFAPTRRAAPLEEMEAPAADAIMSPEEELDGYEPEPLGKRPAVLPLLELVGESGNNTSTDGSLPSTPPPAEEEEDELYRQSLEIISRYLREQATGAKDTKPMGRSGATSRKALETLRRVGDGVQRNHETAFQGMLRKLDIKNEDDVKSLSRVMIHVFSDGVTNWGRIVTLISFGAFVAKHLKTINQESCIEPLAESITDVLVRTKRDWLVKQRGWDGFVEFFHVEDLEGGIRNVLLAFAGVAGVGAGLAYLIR

SMILES	IC50 (MCL-1) [nM]	IC50 (OPM2; Homo sapiens, OPM-2, 72 h) [M]	IC50 (OPM2) [M]	IC50 (MV-4-11) [M]
CCc1c2c(nn1C)CN(C)CCCn1c(C(=O)O)c(CCCOc3cccc4ccccc34)c3ccc(C)c-2c31 (racemic) [Example 144, (rac)-11-ethyl-7,10,12-trimethyl-1-[3-(1-naphthyloxy)propyl]-4,5,6,7,8,10-hexahydropyrazolo[3′,4′:7,8][1,5]diazecino[9,10,1-hi]indole-2-carboxylic Acid]	3.34	5.52e-06	–	–
CC(C)OCc1nn(C)c2c1-c1cccc3c(CCCOc4cccc5ccccc45)c(C(=O)O)n(c13)CCCCN(C)C2 (single isomer, unassigned) [Example 1-74, 1,14-dimethyl-7-[3-(naphthalen-1-yloxy)propyl]-3-[(propan-2-yloxy)methyl]-10,11,12,13,14,15-hexahydro-1H-pyrazolo[3′,4′:8,9][1,6]diazacycloundecino[10,11,1-hi]indole-8-carboxylic Acid]	4.79	1.6e-05	–	–
CCc1c2c(nn1C)COCCCCn1c(C(=O)O)c(CCCOc3cccc4ccccc34)c3ccc(C)c-2c31 (racemic) [Example 153, (rac)-3-Ethyl-2,4-dimethyl-7-[3-(1-naphthyloxy)propyl]-2,10,11,12,13,15-hexahydropyrazolo[4′,3′:9,10][1,6]oxazacycloundecino[8,7,6-hi]indole-8-carboxylic Acid]	4.8	8.4e-06	–	–
CCn1nc2c(c1C1CC1)-c1cccc3c(CCCOc4cccc5ccccc45)c(C(=O)O)n(c13)CCCCOC2 (single isomer, unassigned; enantiomer 1) [Example 082, 3-cyclopropyl-2-ethyl-7-[3-(naphthalen-1-yloxy)propyl]-2,10,11,12,13,15-hexahydropyrazolo[4′,3′:9,10][1,6]oxazacycloundecino[8,7,6-hi]indole-8-carboxylic acid-N-ethylethanamine Salt (Enantiomer 1)]	4.37	–	–	–
Cc1nn(C)c2c1-c1cccc3c(CCCOc4cccc5ccccc45)c(C(=O)O)n(c13)CCCCOCC2 (racemic) [Example 017, (rac)-1,3-dimethyl-7-[3-(1-naphthyloxy)propyl]-10,11,12,13,15,16-hexahydro-1H-pyrazolo[4′,3′:9,10][1,6]oxazacyclododecino[8,7,6-hi]indole-8-carboxylic Acid]	8.96	2.78e-05	> 3.3e-05	–
Cc1c2c(nn1CCN1CCOCC1)CN(C)CCCn1c(C(=O)O)c(CCCOc3cccc4ccccc34)c3cccc-2c31 (single isomer, unassigned; enantiomer 1) [Example 060, 7,11-dimethyl-10-[2-(morpholin-4-yl)ethyl]-1-[3-(naphthalen-1-yloxy)propyl]-4,5,6,7,8,10-hexahydropyrazolo[3′,4′:7,8][1,5]diazecino[9,10,1-hi]indole-2-carboxylic Acid (Enantiomer 1)]	5.44	1.27e-05	–	–
CCc1c2c(nn1C)CN(C)CCCn1c(C(=O)O)c(CCCOc3cccc4ccccc34)c3cccc-2c31 (racemic) [Example 141, (rac)-11-ethyl-7,10-dimethyl-1-[3-(1-naphthyloxy)propyl]-4,5,6,7,8,10-hexahydropyrazolo[3′,4′:7,8][1,5]diazecino[9,10,1-hi]indole-2-carboxylic Acid]	7.27	9.12e-06	–	–
CC(C)c1c2c(nn1C)CN(C)CCCn1c(C(=O)O)c(CCCOc3cccc4ccccc34)c3cccc-2c31 (racemic) [Example 113, (rac)-7,10-dimethyl-1-[3-(naphthalen-1-yloxy)propyl]-11-(propan-2-yl)-4,5,6,7,8,10-hexahydropyrazolo[3′,4′:7,8][1,5]diazecino[9,10,1-hi]indole-2-carboxylic Acid]	19.7	1.42e-05	–	–
COCCn1nc2c(c1C1CC1)-c1cccc3c(CCCOc4cccc5ccccc45)c(C(=O)O)n(c13)CCCCOC2 (single isomer, unassigned; enantiomer 1) [Example 085, 3-Cyclopropyl-2-(2-methoxyethyl)-7-[3-(naphthalen-1-yloxy)propyl]-2,10,11,12,13,15-hexahydropyrazolo[4′,3′:9,10][1,6]oxazacycloundecino[8,7,6-hi]indole-8-carboxylic acid-N-ethylethanamine Salt (Enantiomer 1)]	4.51	–	–	–
Cc1c2c(nn1C)COCCCCn1c(C(=O)O)c(CCCOc3cccc4ccccc34)c3cccc-2c31 (racemic) [Example 1-36, (rac)-2,3-dimethyl-7-[3-(naphthalen-1-yloxy)propyl]-2,10,11,12,13,15-hexahydropyrazolo[4′,3′:9,10][1,6]oxazacycloundecino[8,7,6-hi]indole-8-carboxylic Acid]	3.28	1.01e-05	–	–
COCc1nn(C)c2c1-c1cccc3c(CCCOc4cccc5ccccc45)c(C(=O)O)n(c13)CCCN(C)C2 (single isomer, unassigned; enantiomer 2) [Example 1-104, 11-(methoxymethyl)-7,9-dimethyl-1-[3-(1-naphthyloxy)propyl]-4,5,6,7,8,9-hexahydropyrazolo[3′,4′:7,8][1,5]diazecino[9,10,1-hi]indole-2-carboxylic Acid (Enantiomer 2)]	3.55	–	–	4.44e-06
Cn1nc(COc2ccc(N3CCN(C(=O)C4CC4)CC3)cc2)c2c1COCCCCn1c(C(=O)O)c(CCCOc3cccc4ccccc34)c3cccc-2c31 (single isomer, unassigned; enantiomer 1) [Example 1-22, 3-({4-[4-(cyclopropylcarbonyl)piperazin-1-yl]phenoxy}methyl)-1-methyl-7-[3-(naphthalen-1-yloxy)propyl]-1,10,11,12,13,15-hexahydropyrazolo[4′,3′:9,10][1,6]oxazacycloundecino[8,7,6-hi]indole-8-carboxylic Acid (Enantiomer 1)]	0.787	–	2.56e-06	–
Cc1nn(C)c2c1-c1cccc3c(CCCOc4cccc5cc(F)ccc45)c(C(=O)O)n(c13)CCCCOC2 (single isomer, unassigned; enantiomer 1) [Example 019, 7-{3-[(6-fluoronaphthalen-1-yl)oxy]propyl}-1,3-dimethyl-1,10,11,12,13,15-hexahydropyrazolo[4′,3′:9,10][1,6]oxazacycloundecino[8,7,6-hi]indole-8-carboxylic Acid-N-ethylethanamine Salt (Enantiomer 1)]	0.862	–	–	–
Cc1ccc2c(CCCOc3cccc4ccccc34)c(C(=O)O)n3c2c1-c1c(nn(C)c1C)CN(C)CCC3 (single isomer, unassigned; enantiomer 1) [Example 073, 7,10,11,12-tetramethyl-1-[3-(naphthalen-1-yloxy)propyl]-4,5,6,7,8,10-hexahydropyrazolo[3′,4′:7,8][1,5]diazecino[9,10,1-hi]indole-2-carboxylic Acid (Enantiomer 1)]	2.06	–	–	–
COCCn1nc2c(c1CN1CCOCC1)-c1cccc3c(CCCOc4cccc5ccccc45)c(C(=O)O)n(c13)CCCN(C)C2 (single isomer, unassigned; enantiomer 1) [Example 057, 10-(2-methoxyethyl)-7-methyl-11-(morpholin-4-ylmethyl)-1-[3-(naphthalen-1-yloxy)propyl]-4,5,6,7,8,10-hexahydropyrazolo[3′,4′:7,8][1,5]diazecino[9,10,1-hi]indole-2-carboxylic Acid (Enantiomer 1)]	45.3	> 3.3e-05	–	–
Cc1nn(C)c2c1-c1cccc3c(CCCOc4cccc5cc(Cl)ccc45)c(C(=O)O)n(c13)CCCCOC2 (single isomer, unassigned; enantiomer 1) [Example 041, 7-{3-[(6-chloronaphthalen-1-yl)oxy]propyl}-1,3-dimethyl-1,10,11,12,13,15-hexahydropyrazolo[4′,3′:9,10][1,6]oxazacycloundecino[8,7,6-hi]indole-8-carboxylic acid-N-ethylethanamine Salt (Enantiomer 1)]	4.44	–	–	–
Cc1c2c(nn1C1CC1)COCCCCn1c(C(=O)O)c(CCCOc3cccc4ccccc34)c3cccc-2c31 (single isomer, unassigned; enantiomer 1) [Example 093, 2-cyclopropyl-3-methyl-7-[3-(naphthalen-1-yloxy)propyl]-2,10,11,12,13,15-hexahydropyrazolo[4′,3′:9,10][1,6]oxazacycloundecino[8,7,6-hi]indole-8-carboxylic acid-N-ethylethanamine Salt (Enantiomer 1)]	1.19	–	–	–
Cc1ccc2c(CCCOc3cccc4c3CCCC4)c(C(=O)O)n3c2c1-c1c(C)nn(C)c1COCCCC3 (racemic) [Example 039, (rac)-1,3,4-trimethyl-7-[3-(5,6,7,8-tetrahydronaphthalen-1-yloxy)propyl]-110,11,12,13,15-hexahydropyrazolo[4′3′:9,10][1,6]oxazacycloundecino[8,7,6-hi]indole-8-carboxylic Acid]	5.01	–	–	–
COCCn1nc2c(c1C)-c1cccc3c(CCCOc4cccc5ccccc45)c(C(=O)O)n(c13)CCCCOC2 (single isomer, unassigned; enantiomer 1) [Example 107, 2-(2-methoxyethyl)-3-methyl-7-[3-(naphthalen-1-yloxy)propyl]-2,10,11,12,13,15-hexahydropyrazolo[4′,3′:9,10][1,6]oxazacycloundecino[8,7,6-hi]indole-8-carboxylic acid-N-ethylethanamine Salt (Enantiomer 1)]	1.71	–	–	–
